Calls of active or inactive are those of the source.
Assays:
Hexokinase = molecular target: T1, Hexokinase (Trypanosoma brucei, UniProt Q38C41); assay: Confirmation assay for inhibitors of Trypanosoma brucei hexokinase 1-Analogue-first series. [Related pubchem assays (depositor defined):AID1430, AID1632, AID2516, AID2560, AID2579, AID2600, AID449725, AID492951]; assay type: functional
T1 sequence (Q38C41 whole entry): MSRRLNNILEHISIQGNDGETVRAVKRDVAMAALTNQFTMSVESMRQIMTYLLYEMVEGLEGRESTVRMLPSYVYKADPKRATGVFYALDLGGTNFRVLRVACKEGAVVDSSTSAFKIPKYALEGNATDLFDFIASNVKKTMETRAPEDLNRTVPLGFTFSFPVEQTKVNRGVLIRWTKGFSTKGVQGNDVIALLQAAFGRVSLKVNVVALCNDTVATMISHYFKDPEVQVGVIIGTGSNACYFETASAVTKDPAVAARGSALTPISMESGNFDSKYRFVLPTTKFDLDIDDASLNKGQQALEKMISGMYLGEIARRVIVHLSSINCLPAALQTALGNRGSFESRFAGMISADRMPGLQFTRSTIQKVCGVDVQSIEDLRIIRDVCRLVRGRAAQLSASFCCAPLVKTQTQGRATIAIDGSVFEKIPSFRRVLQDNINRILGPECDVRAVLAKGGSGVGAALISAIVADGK

cells [1] = assay: cells
[2] = molecular target: T2, Sphingosine 1-phosphate receptor 4 (Homo sapiens, UniProt O95977); assay: Late-stage fluorescence dose response cell-based assay to identify agonists of the Sphingosine 1-Phosphate Receptor 4 (S1P4): purchased compounds EC50. [Related pubchem assays (depositor defined):AID1509, AID1523, AID1563, AID1686, AID1701, AID1801]; assay type: functional
T2 sequence (O95977 whole entry): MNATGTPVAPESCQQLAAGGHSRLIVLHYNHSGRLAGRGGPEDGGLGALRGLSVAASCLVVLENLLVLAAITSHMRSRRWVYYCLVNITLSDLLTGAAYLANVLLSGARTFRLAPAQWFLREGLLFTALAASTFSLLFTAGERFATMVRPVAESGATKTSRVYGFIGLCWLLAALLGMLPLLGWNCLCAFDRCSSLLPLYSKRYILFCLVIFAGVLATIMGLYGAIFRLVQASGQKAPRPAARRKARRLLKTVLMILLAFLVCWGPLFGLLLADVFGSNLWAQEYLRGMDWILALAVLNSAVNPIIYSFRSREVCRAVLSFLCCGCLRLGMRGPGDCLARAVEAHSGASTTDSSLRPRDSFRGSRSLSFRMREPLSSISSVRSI

[3] = molecular target: Induced myeloid leukemia cell differentiation protein Mcl-1 (Homo sapiens, UniProt Q07820); assay type: functional
[4] = molecular target: Alkaline phosphatase, placental type (Homo sapiens, UniProt P05187); assay: PLAP enzyme inhibitors, confirmation, biochemical, luminescence (AID 1512); assay type: functional
[5] = molecular target: Glyceraldehyde-3-phosphate dehydrogenase (Homo sapiens, UniProt P04406)
[6] = molecular target: T3, Alkaline phosphatase, tissue-nonspecific isozyme (Homo sapiens, UniProt P05186); assay: human TNAP enzyme inhibitors, SAR follow-up, biochemical, luminescent, dose response (AID 1056)
T3 sequence (P05186 whole entry): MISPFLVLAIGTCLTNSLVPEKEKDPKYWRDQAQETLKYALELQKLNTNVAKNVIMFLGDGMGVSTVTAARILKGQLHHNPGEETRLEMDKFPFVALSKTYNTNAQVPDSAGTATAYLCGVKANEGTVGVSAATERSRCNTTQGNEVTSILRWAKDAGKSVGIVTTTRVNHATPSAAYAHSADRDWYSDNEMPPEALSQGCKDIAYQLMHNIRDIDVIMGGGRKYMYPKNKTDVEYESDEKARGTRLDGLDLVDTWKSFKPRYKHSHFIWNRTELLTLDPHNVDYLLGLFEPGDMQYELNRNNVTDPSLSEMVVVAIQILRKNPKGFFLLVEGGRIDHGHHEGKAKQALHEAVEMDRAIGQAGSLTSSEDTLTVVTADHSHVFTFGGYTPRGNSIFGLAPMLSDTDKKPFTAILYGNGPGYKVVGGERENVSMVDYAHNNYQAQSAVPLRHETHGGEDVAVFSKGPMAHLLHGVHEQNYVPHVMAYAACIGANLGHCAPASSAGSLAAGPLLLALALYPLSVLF

Ion channel NompC = Ion channel NompC (Danio rerio, UniProt Q7T1G6); assay: Fluorescence counterscreen assay for TRPML3 agonists: dose response cell-based high-throughput screening assay to identify agonists of the transient receptor potential channel N1 (TRPN1). [Related pubchem assays: 1526, 1424, 1448 ]; assay type: functional
Mucolipin-3 = molecular target: T4, Mucolipin-3 (Homo sapiens, UniProt Q8TDD5); assay: Dose response cell-based high-throughput screening assay for agonists of the transient receptor potential channel ML3 (TRPML3). [Related pubchem assays: 1526, 1424, 1448 ]; assay type: functional
T4 sequence (Q8TDD5 whole entry): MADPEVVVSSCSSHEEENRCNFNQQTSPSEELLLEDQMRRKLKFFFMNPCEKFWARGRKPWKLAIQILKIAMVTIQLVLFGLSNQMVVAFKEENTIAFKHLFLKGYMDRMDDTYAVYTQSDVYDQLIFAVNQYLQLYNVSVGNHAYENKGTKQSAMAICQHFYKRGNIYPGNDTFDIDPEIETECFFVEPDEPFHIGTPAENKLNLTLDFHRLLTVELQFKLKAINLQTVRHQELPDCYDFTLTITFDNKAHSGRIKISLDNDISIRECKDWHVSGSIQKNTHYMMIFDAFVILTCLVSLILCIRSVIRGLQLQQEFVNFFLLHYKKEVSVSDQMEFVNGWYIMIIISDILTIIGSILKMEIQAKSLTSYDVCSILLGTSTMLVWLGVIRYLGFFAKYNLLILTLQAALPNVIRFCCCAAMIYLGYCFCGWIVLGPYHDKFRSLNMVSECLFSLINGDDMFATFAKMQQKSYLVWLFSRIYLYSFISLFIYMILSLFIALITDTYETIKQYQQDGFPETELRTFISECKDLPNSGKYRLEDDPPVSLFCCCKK

cells [7] = assay type: functional, cell-based
cells [8] = assay type: functional, cell-based; remark: listed apart in the source
[9] = molecular target: DNA dC->dU-editing enzyme APOBEC-3G (Homo sapiens, UniProt Q9HC16); assay: Dose Response confirmation of small molecule APOBEC3G DNA Deaminase Inhibitors via a fluorescence-based single-stranded DNA deaminase assay. [Related pubchem assays (depositor defined):AID493012, AID493028]; assay type: functional
[10] = molecular target: DNA dC->dU-editing enzyme APOBEC-3A (Homo sapiens, UniProt P31941); assay: APOBEC3A DNA deaminase inhibitors, dose response, biochemical (AID 504722); assay type: functional
[11] = molecular target: T5, Polyadenylate-binding protein 1 (Homo sapiens, UniProt P11940); assay: PABP1 MLLE–PAM2 binding inhibitor potency, dose response, biochemical, fluorescence polarization, FITC-PAM2 peptide (AID 602259); assay type: functional; settings: read-out: IC50_Mean
[12] = molecular target: E3 ubiquitin-protein ligase XIAP (Homo sapiens, UniProt P98170); assay: Counter Screen using XIAP-Bir3 for Chemical Antagonists of Bir1/2 domains of IAP-family anti-apoptotic proteins. [Related pubchem assays (depositor defined):AID1018, AID1449, AID1514, AID1638, AID1749, AID1750, AID488957, AID488963]
[13] = molecular target: T5, Polyadenylate-binding protein 1; assay: PABP1 MLLE–PAM2 interaction inhibitors, dose response, miRNA deadenylation inhibitor project, biochemical, fluorescence polarization, Cy5-PAM2 peptide, secondary (AID 602260); assay type: functional; settings: read-out: IC50_Mean
[14] = molecular target: G-protein coupled receptor 55 (Homo sapiens, UniProt Q9Y2T6); assay: GPR55 agonists via beta-arrestin recruitment, primary screen, imaging, U2OS cells, beta-arrestin-GFP redistribution (AID 1961); assay type: functional
CAAX prenyl protease 2 = molecular target: T6, CAAX prenyl protease 2 (Saccharomyces cerevisiae S288c, UniProt Q03530); assay type: biochemical
T6 sequence (Q03530 whole entry): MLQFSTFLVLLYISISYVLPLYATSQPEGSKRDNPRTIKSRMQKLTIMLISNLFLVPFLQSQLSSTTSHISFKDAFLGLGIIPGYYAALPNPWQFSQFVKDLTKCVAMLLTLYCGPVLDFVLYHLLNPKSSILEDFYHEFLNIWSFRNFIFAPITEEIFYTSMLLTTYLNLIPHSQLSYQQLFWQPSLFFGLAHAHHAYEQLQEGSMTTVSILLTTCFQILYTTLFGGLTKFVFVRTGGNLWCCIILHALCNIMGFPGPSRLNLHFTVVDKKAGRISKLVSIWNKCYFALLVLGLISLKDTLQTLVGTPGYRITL

Estrogen receptor beta = Estrogen receptor beta (Homo sapiens, UniProt Q92731); assay: ERβ–SRC-3 coactivator interaction inhibitors, confirmation, orthogonal assay, biochemical, ELISA, streptavidin-HRP readout (AID 1060)
[15] = molecular target: Eukaryotic translation initiation factor 4E (Mus musculus, UniProt P63073); assay: eIF4E–eIF4G protein interaction inhibitors, dose response, biochemical, TR-FRET (AID 855); assay type: functional;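 further: potency for disrupting eIF4E binding to eIF4GI seen as loss of FRET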
[16] = microbe, parasite or virus in culture; assay type: functional; settings: Mycobacterium tuberculosis
[17] = Vero E6 cell cytotoxicity, dose response, cytotoxicity control for non-replicating M. tuberculosis project, secondary assay (AID 492998); assay type: functional, VeroE6; settings: Vero C1008
[18] = THP-1 cell cytotoxicity, dose response, cytotoxicity control for non-replicating M. tuberculosis project (AID 489025); assay type: functional
cells [19] = assay type: functional

Chain of Alkaline phosphatase, placental type (P05187 whole entry): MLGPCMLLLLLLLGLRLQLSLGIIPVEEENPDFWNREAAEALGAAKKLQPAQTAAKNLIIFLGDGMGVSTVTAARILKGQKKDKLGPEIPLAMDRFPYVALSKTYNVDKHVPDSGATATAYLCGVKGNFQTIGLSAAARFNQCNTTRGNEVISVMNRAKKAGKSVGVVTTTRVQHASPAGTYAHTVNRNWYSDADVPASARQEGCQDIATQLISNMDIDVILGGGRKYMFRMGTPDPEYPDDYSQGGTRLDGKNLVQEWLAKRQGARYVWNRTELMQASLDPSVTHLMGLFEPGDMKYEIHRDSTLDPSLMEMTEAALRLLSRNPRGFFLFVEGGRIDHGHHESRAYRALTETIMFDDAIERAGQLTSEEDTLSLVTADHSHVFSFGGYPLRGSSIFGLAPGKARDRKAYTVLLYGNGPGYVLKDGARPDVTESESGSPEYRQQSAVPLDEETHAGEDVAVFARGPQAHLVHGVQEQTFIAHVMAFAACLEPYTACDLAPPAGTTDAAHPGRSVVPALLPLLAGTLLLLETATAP
Chain of DNA dC->dU-editing enzyme APOBEC-3A (P31941 whole entry): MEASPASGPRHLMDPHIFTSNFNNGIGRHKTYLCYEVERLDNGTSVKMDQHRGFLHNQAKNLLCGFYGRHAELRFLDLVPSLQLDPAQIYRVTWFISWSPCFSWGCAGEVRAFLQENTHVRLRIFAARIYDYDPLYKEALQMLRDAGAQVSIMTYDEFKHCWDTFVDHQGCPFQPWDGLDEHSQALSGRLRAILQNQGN
Chain of DNA dC->dU-editing enzyme APOBEC-3G (Q9HC16 whole entry): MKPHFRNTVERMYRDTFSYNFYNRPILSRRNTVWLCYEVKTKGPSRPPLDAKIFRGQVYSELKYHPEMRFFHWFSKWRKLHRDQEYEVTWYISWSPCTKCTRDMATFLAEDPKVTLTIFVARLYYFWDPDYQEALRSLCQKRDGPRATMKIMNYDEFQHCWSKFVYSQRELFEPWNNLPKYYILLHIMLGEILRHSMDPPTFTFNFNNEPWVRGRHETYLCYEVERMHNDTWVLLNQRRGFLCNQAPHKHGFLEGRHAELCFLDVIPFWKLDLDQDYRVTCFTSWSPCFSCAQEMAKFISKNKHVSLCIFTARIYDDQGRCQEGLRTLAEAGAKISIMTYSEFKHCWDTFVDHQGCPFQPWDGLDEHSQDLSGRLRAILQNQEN
Chain of Glyceraldehyde-3-phosphate dehydrogenase (P04406 whole entry): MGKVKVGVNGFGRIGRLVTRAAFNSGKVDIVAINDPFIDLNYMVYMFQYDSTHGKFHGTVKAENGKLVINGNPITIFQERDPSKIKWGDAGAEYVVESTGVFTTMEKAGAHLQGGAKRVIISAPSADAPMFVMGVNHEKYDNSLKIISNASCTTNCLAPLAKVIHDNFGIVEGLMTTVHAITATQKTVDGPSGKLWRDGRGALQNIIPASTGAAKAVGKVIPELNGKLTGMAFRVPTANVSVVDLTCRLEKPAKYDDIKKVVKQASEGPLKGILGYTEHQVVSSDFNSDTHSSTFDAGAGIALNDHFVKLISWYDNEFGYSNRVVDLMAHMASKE
Chain of Eukaryotic translation initiation factor 4E (P63073 whole entry): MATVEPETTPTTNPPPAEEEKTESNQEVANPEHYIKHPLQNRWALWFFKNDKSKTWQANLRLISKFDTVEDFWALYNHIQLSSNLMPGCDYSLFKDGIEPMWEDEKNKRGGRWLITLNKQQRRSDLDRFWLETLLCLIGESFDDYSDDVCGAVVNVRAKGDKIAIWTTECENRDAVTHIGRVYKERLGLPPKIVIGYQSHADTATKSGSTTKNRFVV
Chain of G-protein coupled receptor 55 (Q9Y2T6 whole entry): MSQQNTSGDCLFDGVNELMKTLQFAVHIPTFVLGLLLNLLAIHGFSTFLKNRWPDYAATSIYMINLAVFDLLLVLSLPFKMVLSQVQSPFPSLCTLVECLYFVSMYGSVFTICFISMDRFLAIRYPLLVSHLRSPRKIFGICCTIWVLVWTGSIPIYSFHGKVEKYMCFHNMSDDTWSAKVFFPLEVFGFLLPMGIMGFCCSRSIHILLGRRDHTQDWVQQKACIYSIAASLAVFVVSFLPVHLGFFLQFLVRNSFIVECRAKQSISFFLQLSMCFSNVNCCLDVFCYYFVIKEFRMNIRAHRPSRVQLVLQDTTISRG
Chain of Induced myeloid leukemia cell differentiation protein Mcl-1 (Q07820 whole entry): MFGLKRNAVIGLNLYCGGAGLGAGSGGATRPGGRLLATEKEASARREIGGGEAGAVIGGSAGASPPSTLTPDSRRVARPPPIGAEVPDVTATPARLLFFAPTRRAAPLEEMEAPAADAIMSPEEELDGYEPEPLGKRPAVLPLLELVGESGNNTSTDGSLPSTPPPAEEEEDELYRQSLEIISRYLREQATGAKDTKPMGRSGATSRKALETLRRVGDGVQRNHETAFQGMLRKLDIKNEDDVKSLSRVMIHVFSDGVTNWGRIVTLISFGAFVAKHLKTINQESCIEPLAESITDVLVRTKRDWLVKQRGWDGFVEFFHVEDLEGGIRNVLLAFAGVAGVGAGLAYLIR
T5 sequence (P11940 whole entry): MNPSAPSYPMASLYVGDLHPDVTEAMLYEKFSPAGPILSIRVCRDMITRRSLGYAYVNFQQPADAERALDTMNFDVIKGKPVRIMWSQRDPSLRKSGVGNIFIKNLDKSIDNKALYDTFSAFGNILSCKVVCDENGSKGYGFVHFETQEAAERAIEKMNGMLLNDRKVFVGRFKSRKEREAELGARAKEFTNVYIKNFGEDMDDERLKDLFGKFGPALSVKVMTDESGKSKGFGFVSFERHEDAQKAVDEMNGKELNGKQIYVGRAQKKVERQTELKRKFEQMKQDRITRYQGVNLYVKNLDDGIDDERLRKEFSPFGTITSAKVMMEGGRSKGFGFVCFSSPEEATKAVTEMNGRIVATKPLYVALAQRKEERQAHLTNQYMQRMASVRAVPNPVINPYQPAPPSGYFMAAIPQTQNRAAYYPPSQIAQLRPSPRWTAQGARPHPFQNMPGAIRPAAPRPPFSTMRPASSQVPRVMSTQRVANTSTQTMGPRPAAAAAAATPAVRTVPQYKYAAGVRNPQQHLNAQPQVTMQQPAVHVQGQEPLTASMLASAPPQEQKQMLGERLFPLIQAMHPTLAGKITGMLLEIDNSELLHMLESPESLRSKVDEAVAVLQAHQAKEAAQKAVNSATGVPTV
Chain of Ion channel NompC (Q7T1G6 whole entry): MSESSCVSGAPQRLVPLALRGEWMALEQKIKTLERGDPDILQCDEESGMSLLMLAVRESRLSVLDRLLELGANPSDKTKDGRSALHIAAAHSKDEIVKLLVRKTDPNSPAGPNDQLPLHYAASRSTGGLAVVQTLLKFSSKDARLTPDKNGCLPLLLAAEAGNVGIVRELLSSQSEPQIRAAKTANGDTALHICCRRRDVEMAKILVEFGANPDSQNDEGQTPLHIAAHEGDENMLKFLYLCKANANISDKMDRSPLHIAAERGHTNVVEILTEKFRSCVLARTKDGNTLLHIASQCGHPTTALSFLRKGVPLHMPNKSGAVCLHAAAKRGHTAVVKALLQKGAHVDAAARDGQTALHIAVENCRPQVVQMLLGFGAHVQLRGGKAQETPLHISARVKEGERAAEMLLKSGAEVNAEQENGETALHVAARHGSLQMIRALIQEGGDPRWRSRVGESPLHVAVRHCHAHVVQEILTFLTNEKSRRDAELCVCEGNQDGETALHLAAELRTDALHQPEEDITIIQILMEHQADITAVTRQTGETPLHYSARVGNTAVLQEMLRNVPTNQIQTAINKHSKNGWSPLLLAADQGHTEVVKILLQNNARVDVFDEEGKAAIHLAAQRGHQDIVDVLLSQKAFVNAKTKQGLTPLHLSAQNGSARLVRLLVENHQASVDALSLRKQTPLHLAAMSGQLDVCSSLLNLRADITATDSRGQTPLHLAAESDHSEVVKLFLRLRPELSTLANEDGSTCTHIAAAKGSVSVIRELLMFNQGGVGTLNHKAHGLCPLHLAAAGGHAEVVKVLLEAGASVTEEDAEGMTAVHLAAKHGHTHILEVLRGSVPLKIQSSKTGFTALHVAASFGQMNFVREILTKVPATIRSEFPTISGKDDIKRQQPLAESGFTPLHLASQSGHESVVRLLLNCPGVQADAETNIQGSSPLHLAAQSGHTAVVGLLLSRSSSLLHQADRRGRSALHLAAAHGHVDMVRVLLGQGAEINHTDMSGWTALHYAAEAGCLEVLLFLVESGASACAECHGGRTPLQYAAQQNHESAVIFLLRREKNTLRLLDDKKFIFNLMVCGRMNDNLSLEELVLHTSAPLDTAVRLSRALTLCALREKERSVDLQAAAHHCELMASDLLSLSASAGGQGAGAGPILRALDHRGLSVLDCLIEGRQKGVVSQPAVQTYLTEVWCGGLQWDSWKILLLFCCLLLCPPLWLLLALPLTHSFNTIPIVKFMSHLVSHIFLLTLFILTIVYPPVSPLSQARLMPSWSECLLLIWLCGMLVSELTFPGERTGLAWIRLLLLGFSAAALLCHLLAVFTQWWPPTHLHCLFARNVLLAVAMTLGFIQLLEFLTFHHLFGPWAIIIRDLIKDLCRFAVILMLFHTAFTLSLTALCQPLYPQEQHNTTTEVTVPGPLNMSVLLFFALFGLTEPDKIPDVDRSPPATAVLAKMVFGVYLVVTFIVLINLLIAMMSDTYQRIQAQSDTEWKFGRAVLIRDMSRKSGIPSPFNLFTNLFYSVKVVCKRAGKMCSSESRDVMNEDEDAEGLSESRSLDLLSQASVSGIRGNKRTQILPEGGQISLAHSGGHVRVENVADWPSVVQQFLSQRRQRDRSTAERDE

COc1ccc(C(=O)Nc2cc(C(=O)O)ccc2Cl)cc1
IC50 (Hexokinase): > 25 µM (inactive)

CC(=O)N1CCN(C2=NC(=O)/C(=C/c3ccc(OS(=O)(=O)c4ccccc4)cc3)S2)CC1
IC50 (cells [1]): 37.9 µM (active)

Cc1ccc(OCc2c(Cl)cccc2Cl)c([N+](=O)[O-])n1
EC50 [2]: > 50 µM (inactive)

Cc1[nH]c2ccccc2c1/C=N/Nc1ccc([N+](=O)[O-])cc1
IC50 [3]: < 0.4 µM (active) | IC50 (cells [1]): 27 µM (active)

Cn1ncc2c1ncn1c(-c3ccccc3)nnc21
IC50 [4]: > 100 µM (inactive) | IC50 [5]: > 100 µM (not active) | IC50 [6]: > 100 µM (inactive)

Cc1ccc(OCC(=O)N(C)CCOc2ccc(Cl)cc2)c([N+](=O)[O-])n1
EC50 [2]: > 50 µM (inactive)

CC(C)[C@H](NS(=O)(=O)c1ccc2c(c1)OCCO2)C(=O)OCC(=O)Nc1cccc(Cl)c1Cl
EC50 (Ion channel NompC): > 29.9 µM (not active) | EC50 (Mucolipin-3): 3.69 µM (active)

COc1ccccc1-c1nnc(SCC(=O)Nc2ccccc2[N+](=O)[O-])[nH]1
IC50 [4]: > 100 µM (inactive) | IC50 [5]: > 100 µM (not active) | IC50 [6]: 13.3 µM (active)

c1ccc(CSc2nnc(-c3ccco3)o2)cc1
EC50 (cells [7]): > 350 µM (not active) | EC50 (cells [8]): > 350 µM (not active)

CC(C)CSc1nnc(S)s1
IC50 [9]: 3.32 µM (active) | IC50 [10]: > 100 µM (inactive)

COc1ccc(-c2[nH]nc(-c3ccccc3)c2-c2nc3ccccc3[nH]2)cc1
IC50 [4]: > 100 µM (inactive) | IC50 [5]: 81.2 µM (active) | IC50 [6]: > 100 µM (inactive)

O=c1c2ccccc2cnn1Cc1nnc(S)n1-c1ccc(Cl)cc1
IC50 [9]: 5.01 µM (active) | IC50 [10]: > 100 µM (inactive)

Cc1ccc(OCc2cccc(COc3ccc(C)nc3[N+](=O)[O-])c2)c([N+](=O)[O-])n1
EC50 [2]: > 50 µM (inactive)

CC(C)CC1NC(=O)N(Cc2cc(=O)n3ccsc3n2)C1=O (stereo unspecified)
EC50 (cells [7]): > 350 µM (not active) | EC50 (cells [8]): > 350 µM (not active)

CCCCNC(=O)CC1N=C2c3ccccc3N=C(SCC(=O)Nc3ccc(OC)cc3)N2C1=O (stereo unspecified)
IC50 (cells [1]): 37 µM (active)

Cc1nc(-c2ccccc2)sc1-c1n[nH]c(=S)n1C
IC50 [9]: 4.9 µM (active) | IC50 [10]: > 100 µM (inactive)

COc1ccc(C(=O)NC(CC(=O)O)c2ccc(Cl)cc2)cc1 (stereo unspecified)
IC50 (Hexokinase): > 25 µM (inactive)

COc1cc(NS(=O)(=O)c2ccc(NC(=S)NC(=O)/C=C/c3ccc(F)cc3)cc2)ncn1
IC50 [11]: > 66 µM (inactive) | IC50 [12]: > 20 µM (inactive) | IC50 [13]: > 66 µM (inactive)

Nc1ccc(Oc2ccc3nc(-c4ccccc4)c(-c4ccccc4)nc3c2)cc1
EC50 [14]: 1.91 µM (active)

CCOC(=O)C1CCCN(C(=O)CCn2nnnc2CN2CCOCC2)C1 (stereo unspecified)
AC50 (CAAX prenyl protease 2): 27.9 µM (active)

Nc1c(C(=O)NCc2ccco2)sc2nc3c(cc12)C(=O)CCC3
IC50 (Estrogen receptor beta): 6.25 µM (not active) | IC50 [3]: 3.38 µM (active) | IC50 [15]: > 64 µM (inactive)

CNC(C)C#Cc1ccc2oc3cc(C)c(C)cc3c(=O)c2c1 (stereo unspecified)
CC50 [16]: 29 µM (active) | CC50 [17]: > 20 µM (active) | CC50 [18]: 22.2 µM (active) | IC50 (cells [19]): 11.8 µM (active)

Cc1cccc(-c2noc(CN(C(C)C)S(=O)(=O)c3ccc(F)cc3)n2)c1
EC50 (Ion channel NompC): > 29.9 µM (not active) | EC50 (Mucolipin-3): 1.77 µM (active)

COc1ccccc1CC(=O)Nc1ccc2c(c1)C(=O)NC2=O
EC50 [14]: 14.9 µM (inactive)

O=C1C2C3C=CC(C3)C2C(=O)N1CCCCN1C(=O)C2C3C=CC(C3)C2C1=O (stereo unspecified)
IC50 [15]: > 64 µM (inactive)

From ChEMBL document CHEMBL1201862, “PubChem BioAssay data set” (2004)
